Source: ChEMBL document CHEMBL4033748, “SAR and characterization of non-substrate isoindoline urea inhibitors of nicotinamide phosphoribosyltransferase (NAMPT)” (Bioorg Med Chem Lett, 2017)
Converted amounts (≈) assume the structure as drawn. The source made the active and inactive calls. The rule behind the calls is not given here.

Columns and labels:
Liver [1] = assay: Unbound intrinsic clearance in mouse liver microsomes at 0.5 uM in presence of NADPH incubated for 5 to 30 mins by HPLC-MS/MS method; type: ADME, microsome
PC-3 = assay: Antiproliferative activity against human PC3 cells assessed as reduction in cell viability incubated for 5 days by Cell-titer Glo reagent based assay; type: functional
Liver [2] = assay: Unbound intrinsic clearance in human liver microsomes at 0.5 uM in presence of NADPH incubated for 5 to 30 mins by HPLC-MS/MS method; type: ADME, microsome
[3] = Aqueous solubility of the compound; type: physicochemical; settings: buffer
[4] = molecular target: Nicotinamide phosphoribosyltransferase (Homo sapiens, UniProt P43490)
Sequence of Nicotinamide phosphoribosyltransferase (P43490 whole entry): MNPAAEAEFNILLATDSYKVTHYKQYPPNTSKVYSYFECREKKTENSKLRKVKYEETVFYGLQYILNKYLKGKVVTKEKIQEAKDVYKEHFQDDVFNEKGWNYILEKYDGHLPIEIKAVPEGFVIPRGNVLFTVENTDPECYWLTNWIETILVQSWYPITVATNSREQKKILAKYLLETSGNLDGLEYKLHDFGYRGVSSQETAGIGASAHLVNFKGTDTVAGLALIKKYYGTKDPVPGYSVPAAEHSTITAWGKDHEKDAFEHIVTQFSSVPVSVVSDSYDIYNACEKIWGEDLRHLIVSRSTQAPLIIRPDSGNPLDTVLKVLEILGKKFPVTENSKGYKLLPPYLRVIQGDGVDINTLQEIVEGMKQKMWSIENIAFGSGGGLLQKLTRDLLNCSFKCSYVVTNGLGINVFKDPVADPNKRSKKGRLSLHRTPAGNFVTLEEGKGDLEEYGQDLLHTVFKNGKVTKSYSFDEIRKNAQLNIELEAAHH
Description: Inhibition of C-terminal His-tagged human recombinant NAMPT using FK866 or isoindoline urea-based Oregon green (488) probe incubated for 3 hrs by TR-FRET assay

Cytochrome P450 3A4 = Cytochrome P450 3A4 (Homo sapiens, UniProt P08684); assay: Inhibition of CYP3A4 (unknown origin); type: ADME
Sequence of Cytochrome P450 3A4 (P08684 whole entry): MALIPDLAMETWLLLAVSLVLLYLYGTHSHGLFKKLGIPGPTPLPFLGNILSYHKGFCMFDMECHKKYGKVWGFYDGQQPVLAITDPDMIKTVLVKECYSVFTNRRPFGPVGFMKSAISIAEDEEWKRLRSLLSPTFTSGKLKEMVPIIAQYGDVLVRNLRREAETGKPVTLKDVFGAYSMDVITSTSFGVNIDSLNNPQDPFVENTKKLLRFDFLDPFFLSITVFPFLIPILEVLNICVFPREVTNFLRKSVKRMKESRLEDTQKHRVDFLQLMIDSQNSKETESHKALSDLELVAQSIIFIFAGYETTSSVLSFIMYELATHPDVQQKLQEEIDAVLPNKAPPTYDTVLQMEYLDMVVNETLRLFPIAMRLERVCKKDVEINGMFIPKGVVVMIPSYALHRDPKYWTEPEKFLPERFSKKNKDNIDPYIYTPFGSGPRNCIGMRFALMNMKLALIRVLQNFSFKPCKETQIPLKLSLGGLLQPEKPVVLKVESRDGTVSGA

ES2 = settings: Homo sapiens
Description: Antitumor activity against human ES2 cells xenografted in CB17 SCID mouse assessed as tumor growth inhibition

Rattus norvegicus = assay: Unbound intrinsic clearance in Sprague-Dawley rat at 5 mg/kg, iv; type: ADME, organism-based; settings: in vivo
Cytochrome P450 2C9 = Cytochrome P450 2C9 (Homo sapiens, UniProt P11712); assay: Inhibition of CYP2C9 (unknown origin); type: ADME
Sequence of Cytochrome P450 2C9 (P11712 whole entry): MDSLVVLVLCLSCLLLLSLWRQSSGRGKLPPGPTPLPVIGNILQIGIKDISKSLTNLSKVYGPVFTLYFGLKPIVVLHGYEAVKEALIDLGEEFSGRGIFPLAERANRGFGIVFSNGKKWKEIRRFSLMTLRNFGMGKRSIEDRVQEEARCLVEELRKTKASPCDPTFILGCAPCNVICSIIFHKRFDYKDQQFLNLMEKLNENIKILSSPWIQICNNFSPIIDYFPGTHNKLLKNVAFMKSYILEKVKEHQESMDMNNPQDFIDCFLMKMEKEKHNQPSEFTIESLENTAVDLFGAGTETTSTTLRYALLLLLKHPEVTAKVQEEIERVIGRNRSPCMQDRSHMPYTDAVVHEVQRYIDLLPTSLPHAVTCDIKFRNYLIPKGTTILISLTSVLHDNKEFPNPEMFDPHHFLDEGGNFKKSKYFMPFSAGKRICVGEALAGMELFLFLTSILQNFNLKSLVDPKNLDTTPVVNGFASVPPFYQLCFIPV

H460LM = settings: Homo sapiens
Description: Antitumor activity against human H460LM cells xenografted in CB17 SCID mouse assessed as tumor growth inhibition

U-87 MG = settings: Homo sapiens; U-87MG ATCC
Description: Antitumor activity against human U87MG cells xenografted in CB17 SCID mouse assessed as tumor growth inhibition

A2780 = settings: Homo sapiens
Description: Antitumor activity against human A2780 cells xenografted in CB17 SCID mouse assessed as tumor growth inhibition

Liver [5] = assay: Unbound intrinsic clearance in rat liver microsomes at 0.5 uM in presence of NADPH incubated for 5 to 30 mins by HPLC-MS/MS method; type: ADME, microsome
HCT-116 = assay: Antitumor activity against human HCT116 cells xenografted in CB17 SCID mouse assessed as tumor growth inhibition at 15 mg/kg/day, po dosed daily (3 days on/4 days off per cycle for 3 cycles); type: functional; settings: HCT-116, po, 72 h, read-out: TGI
[6] = Plasma clearance in Sprague-Dawley rat at 5 mg/kg, iv; type: ADME, organism-based
NCI-H345 = settings: Homo sapiens
Description: Antitumor activity against human NCI-H345 cells xenografted in CB17 SCID mouse assessed as tumor growth inhibition

[7] = Oral bioavailability in Sprague-Dawley rat at 5 mg/kg; type: ADME, organism-based; settings: in vivo
[8] = Half life in Sprague-Dawley rat at 5 mg/kg, iv; type: ADME, organism-based; settings: in vivo

| SMILES | CL free (Liver [1]) [mL/min/kg] | IC50 (PC-3; Homo sapiens, PC-3, 120 h) [nM] | CL free (Liver [2]) [mL/min/kg] | solubility [3] [µM] | IC50 (PC-3; pc-3) [nM] | Ki [4] [nM] | further results |
| --- | --- | --- | --- | --- | --- | --- | --- |
| O=C(/C=C/c1cccnc1)NCCCCC1CCN(C(=O)c2ccccc2)CC1 [DAPORINAD] | 258 | 5.7 | 91.7 | < 5 | – | – | – |
| CC(C)CCNC(=O)c1ccc(NC(=O)N2Cc3ccccc3C2)nc1 | 283 | – | 53.3 | – | 14 | – | – |
| CC(C)C[C@@H](CO)NC(=O)c1ccc(NC(=O)N2Cc3ccccc3C2)cc1 | 115 | 66 | 56.7 | < 5 | – | – | – |
| NC(=O)c1ccc(NC(=O)N2Cc3ccccc3C2)cc1 | 148 | – | 20 | < 5 | 8000 | – | – |
| O=C(Nc1ccc(S(=O)(=O)c2ccccc2)cc1)N1Cc2ccccc2C1 | 367 | 30 | 73.3 | – | – | 21 | – |
| CC(C)CCNC(=O)c1ccc(NC(=O)N2Cc3ccc(F)cc3C2)cc1 | – | – | – | – | 6.5 | – | – |
| O=C(Nc1ccc(N2CCN(C(=O)c3ccccc3)CC2)cc1)N1Cc2ccccc2C1 | – | 84 | 130 | – | – | – | – |
| O=C(Nc1ccc(C2CCN(S(=O)(=O)C3CC3)CC2)cc1)N1Cc2ccc(F)cc2C1 | 500 | 6.5 | 58.3 | – | – | 3.9 | – |
| CC(C)CCNC(=O)c1ccc(NC(=O)N2Cc3ccncc3C2)cc1 | – | – | – | – | 8.4 | – | – |
| O=C(Nc1ccc(C2=CCN(C(=O)c3ccccc3)CC2)cc1)N1Cc2ccccc2C1 | – | 8.1 | 217 | – | – | – | – |
| Cc1ccc(NC(=O)N2Cc3ccccc3C2)cc1 | – | – | – | < 5 | > 10000 | 2200 | – |
| COc1ccc2c(c1)CN(C(=O)Nc1ccc(C(=O)NCCC(C)C)cc1)C2 | – | – | – | – | > 10000 | – | – |
| O=C(Nc1ccc(C(=O)N2CCN(c3ccccn3)CC2)cc1)N1Cc2ccccc2C1 | 183 | 19 | 63.3 | < 5 | – | – | – |
| CC(C)CCC(=O)Nc1ccc(NC(=O)N2Cc3ccccc3C2)cc1 | 783 | 17 | 60 | < 5 | – | 58 | – |
| CC1(C(=O)N2CCC(c3ccc(NC(=O)N4Cc5ccccc5C4)cc3)CC2)COC1 | 145 | 15 | 50 | – | – | 5.1 | – |
| CC(C)CCNC(=O)c1ccc(NC(=O)N2Cc3ccccc3C2)cc1 | 817 | – | 250 | < 5 | 38 | – | – |
| CN(CCC(C)(C)C)C(=O)c1ccc(NC(=O)N2Cc3ccccc3C2)cc1 | 2170 | 1100 | 2000 | < 5 | – | 160 | – |
| CC(C)(O)CC(=O)N1CCC(c2ccc(NC(=O)N3Cc4ccc(F)cc4C3)cc2)CC1 | 143 | 3.2 | 95 | – | – | 2.5 | – |
| O=C(NCc1ccc(S(=O)(=O)c2ccccc2)cc1)N1Cc2ccccc2C1 | 3670 | > 10000 | 650 | – | – | – | – |
| CC(C)C(=O)N1CCC(c2ccc(NC(=O)N3Cc4ccccc4C3)cc2)CC1 | 367 | 18 | 58.3 | – | – | – | – |
| O=C(Nc1ccc(C2CCN(C(=O)[C@@H]3CCCO3)CC2)cc1)N1Cc2ccc(Cl)cc2C1 | 583 | 7.9 | 217 | – | – | 1.7 | – |
| CC(C)CCNC(=O)c1ccc(NC(=O)N2Cc3ccccc3C2)cn1 | 1250 | – | 217 | – | 730 | – | – |
| O=C(NC[C@@H]1CCOC1)c1ccc(NC(=O)N2Cc3ccccc3C2)cc1 | – | – | – | 17 (≈ 6.21 µg/mL) | 56 | – | IC50 (Cytochrome P450 3A4): > 20000 nM; TGI (ES2): Active; CL free (Rattus norvegicus): 28.3 mL/min/kg; IC50 (Cytochrome P450 2C9): > 20000 nM; TGI (H460LM): Active; TGI (U-87 MG): Active; TGI (A2780): Active; CL free (Liver [5]): < 46.7 mL/min/kg; inhibition in vivo at 15 mg/kg/day (HCT-116): 78%; clearance [6]: 4.33 mL/min/kg; TGI (NCI-H345): Active; bioavailability [7]: 59%; half-life [8]: 3 h |
| O=C(Nc1ccc(C2CN(C(=O)c3ccccc3)C2)cc1)N1Cc2ccc(F)cc2C1 | 433 | 3.9 | 45 | – | – | 1.9 | – |
